The results in this text go back to patent publication US3966793A (priority 1964, dated 1976).

The nature of series [1]: Reaction (pH) of aqueous solution. Format: physicochemical.
In series [2] the test system is mice. The series is described as follows: Traction test (mice), myorelaxant activity. Format: in vivo. As to conditions: Mus musculus, po, read-out: Traction, 50% effective dose. From the text: This consists in observing when the treated animals are capable of retrieving a rod grasped by the front paws only. Inability to carry this out was interpreted as a sign of myorelaxant activity.

The test system of series [3] is mice. The series is described as follows: Balance test: rotating rod (mice) (Equilibration). The note with it: Mus musculus, po, read-out: Equilibration, 50% effective dose. Format: in vivo. From the text: 2. Balance test: rotating rod (mice)
This test consists in observing whether the treated animals are capable of maintaining their balance on a horizontal rod kept in rotation.
Numerous neuroleptic compounds or tranquilizers disturb the equilibration reflex.

The test system of series [4] is mice. Put plainly: Anti-convulsant activity (anti-pentetrazole) (mice). The note with it: mouse, PO; pentetrazole 125 mg./kg. IP; read-out: Anti-pentetrazole, 50% effective dose. The class given is in vivo. As for the experimental part:
3. Anti-convulsant activity (anti-pentetrazole) (mice)
Pentetrazole, injected intraperitoneally in a dose of 125 mg./kg. produces fatal convulsions in 100% of the animals.
Certain compounds exert a protective action preventing convulsions and permitting survival.

The subject of series [5] is mice. The series is described as follows: Anti-convulsant activity (electric shock) (mice). Format: in vivo. As to conditions: Mus musculus, po, read-out: Electric shock, 50% effective dose. From the text:
4. Anti-convulsant activity (electric shock) (mice)
The test consists in determining the intensity of the electric current required to produce a fatal shock in a batch of test animals.
Certain preventively administered compounds effectively protect a certain percentage of animals subjected to an electric current of an intensity which is fatal to untreated animals.

Series [6] relates to mice. Put plainly: Exploration test (mice). The class given is in vivo. The note with it: Mus musculus, read-out: Exploration, 50% effective dose. The protocol: 5. Exploration test (mice)
This extremely simple test consists in placing a mouse at the center of a floor pierced with holes and in noting how many holes the mouse explores in 5 minutes. This test is carried out in a room in which complete silence is observed and which contains no person except the experimenter who is seated and still. It appeals to the curiosity of the animals. The doses of the compounds employed are, however, very small and considerably less than those required to impair movement. This simple test makes it possible to observe whether the compounds assayed produce a more or less pronounced lack of interest in the environment and it gives information which is interesting from the clinical point of view with regard to the treatment of anxiety and restlessness.

The test system of series [7] is mouse. The series is described as follows: Spontaneous motor activity in the mouse. Format: in vivo. As to conditions: Mus musculus, po, read-out: Spontaneous motor activity, 50% effective dose. The source says: (§1) 6. Spontaneous motor activity in the rat and mouse and provoked motor activity
(§2) The effect of drugs on voluntary movements of animals can be studied statistically by methods, the details of which will not be discussed here. The mouse, which is an extremely lively animal and moves about a great deal, is particularly suitable for this type of experiment.

A further series in a line: Acute toxicity (M) LD 50. The note with it: in vivo, mouse.
Series [8] concerns rat. Put plainly: Benzedrine provoked motor activity (R). Format: in vivo. The note with it: PO, read-out: Benzedrine provoked motor activity, 50% effective dose.
From the text: as §1, §2
Moreover, this spontaneous mobility can be exacerbated by preventive administration to the animals of certain substances such as benzedrine, mescaline and ritaline.
The experimental results obtained by these methods give valuable information for clinical purposes with regard to the treatment of ambulatory psychomotor crises.

Another series deals with cat. Put plainly: Morphine crisis (C). The class given is in vivo. As to conditions: Felis catus, SC, read-out: Morphine crisis, 50% effective dose. The source says: In the cat, morphine produces a specific state of excitation with hallucinations which can be attenuated or suppressed by certain psycholeptic drugs.
In the next series the test system is male rat. The series is described as follows: Combativeness (rat). Format: in vivo. As to conditions: for ED50: rat, PO, read-out: Combativeness, 50% effective dose. From the text:
It is possible to make a male rat aggressive towards another male rat enclosed in the same cage by passing an electric current of more or less high voltage through the floor of the cage.
This test, like the preceding one, can obviously give information of clinical value for the treatment of aggression diseases.

The test system of series [9] is rat. Put plainly: Spontaneous motor activity in the rat. The class given is in vivo. The note with it: Rattus norvegicus, po, read-out: Spontaneous motor activity, 50% effective dose.
From the text: as §1, §2

For series [10], the system named is mouse. Put plainly: Antistrychnine activity. The class given is in vivo. As to conditions: po, read-out: Anti-strychnine, 50% effective dose. The source says:
7. Antistrychnine activity

The subject of a further series is cats. The series is described as follows: Aggressiveness (cat/mouse). As to conditions: Felis catus, SC, read-out: Aggressiveness, 50% effective dose. Format: in vivo. From the text:
9. Aggressiveness (cat/mouse)
In general, 75 to 80% of cats are aggressive when confronted with white mice. Psycholeptics and tranquilizers may make the cat indifferent and sometimes even amiable to the mouse. Similarly, in the case of cats that are furious and aggressive in relation to humans, diminution or suppression of the instinctive fear and establishment of a climate of confidence are observed.

In a further series the test system is central nervous system. The series is described as follows: Pharmacodynamic / central nervous system tests taken together. The class given is in vivo. From the text: A certain number of the compounds described in the present application have been studied with regard to their action on the central nervous system, as psycholeptics, myorrelaxants and tranquilizers. In addition, the acute toxicity has been determined for a number of these compounds.
It has thereby been possible to make quantitative comparisons of the activity of the different compounds for the different tests employed.

Entries after “also recorded” stand apart in the source; their conditions may differ. Counter-ions that a name gives are not always drawn.

In the case of `Nc1ccc2c(c1)C(c1ccccc1)=NC(C(=O)O)C(=O)N2.[K+].[K+].[OH-].[OH-]` (stereo not drawn) [4371 CB, 7-Amino-2,3-dihydro-2-oxo-5-phenyl-1H-benzo[f]-1,4-diazepine-3-carboxylic acid, monopotassium salt, monopotassium hydroxide], the “Reaction / pH of aqueous solution” value in series [1] is given as “strongly alkaline reaction”. Also, the Solubility in water result in the series “Solubility” is reported as “completely soluble in water”.

Turning to `CN1C(=O)C(C(=O)O)N=C(c2ccccc2)c2cc(Cl)ccc21.[K+].[K+].[OH-].[OH-]` (stereo not drawn) [4350 CB, 7-Chloro-1-methyl-2,3-dihydro-2-oxo-5-phenyl-1H-benzo[f]-1,4-diazepine-3-carboxylic acid, monopotassium salt, monopotassium hydroxide], the ED50 in the series on mice [2] was 5 mg/kg; in the series on mice [3], above 10 mg/kg; with mice [4], 7.5 mg/kg; in the series on mice [5] it was 20 mg/kg; with mice [6] (po), 10 mg/kg; in the series on mouse [7], above 20 mg/kg. The “Reaction / pH of aqueous solution” value in series [1] is on record as “strongly alkaline in reaction”. Also, the Solubility in water entry in the series “Solubility” is given as “very soluble in water; also recorded: completely soluble in water”.

With `NC(=O)C(N=C(c1ccccc1)c1cc(Cl)ccc1N)C(=O)O` (stereo not drawn) [4349 CB, Potassium salt of 4-phenyl-4-(2-amino-5-chlorophenyl)-2-carbamoyl-3-aza-3-butenoic acid], the ED50 in the series with mice [2] was 10 mg/kg; with mice [3], above 10 mg/kg; in the series on mice [4], above 10 mg/kg; in the series on mice [5] it was above 10 mg/kg; in the series on mice [6] (po) it was 10 mg/kg; in the series on mouse [7], 10 mg/kg. In addition, the Solubility in water entry in “Solubility” is listed as “completely soluble in water”.

As to `O=C(O)C1N=C(c2ccccc2)c2ccccc2NC1=O` (stereo not drawn) [4338 CB, 3-[5-Phenyl-2-oxo-2,3-dihydro-1H-benzo[f]-1,4-diazepine]-carboxylic acid, potassium salt], the ED50 is 5 mg/kg with mice [2]; above 10 mg/kg in the series on mice [3]; above 10 mg/kg with mice [4]; above 10 mg/kg in the series with mice [5]; above 10 mg/kg in the series with mice [6] (route not given); 10 mg/kg in the series on mouse [7]. Besides, the “Reaction / pH of aqueous solution” value in [1] is recorded as “substantially neutral reaction”. For the same compound, the Solubility in water entry in “Solubility” is “dissolves in water”.

`Cc1ccc2c(c1)C(c1ccccc1)=NC(C(=O)O)C(=O)N2` (stereo not drawn) [4373 CB, 3-[7-methyl-5-phenyl-2-oxo-2,3-dihydro-1H-benzo[f]-1,4-diazepine]-carboxylic acid, potassium salt]: the Solubility in water entry in the series “Solubility” is reported as “completely soluble in water”.

As for `O=C(O)C1N=C(c2ccccc2)c2cc(Cl)ccc2NC1=O` (stereo not drawn) [4372 CB, 7-Chloro-2,3-dihydro-2-oxo-5-phenyl-1H-benzo[f]-1,4-diazepine-3-carboxylic acid, calcium salt], the Solubility in water result in the series “Solubility” is on record as “sparingly soluble in water”.

`CNC1=Nc2ccc(Cl)cc2C(c2ccccc2)=[N+]([O-])C1` [Chlordiazepoxide, reference compound]: the LD50 in the series “Acute toxicity (M) LD 50” (IP) was determined as 80 mg/kg; in “Acute toxicity (M) LD 50” (PO), 200 mg/kg. Besides, the ED50 is 3 mg/kg in the series on mice [2]; 13 mg/kg in the series on mice [3]; 5 mg/kg with mice [4]; 17 mg/kg in the series with mice [5]; 20 mg/kg in the series on mice [6] (po); above 100 mg/kg with rat [8]. Also, the ED50 with cat and in the series on male rat was 100 mg/kg throughout.

Regarding `CCN(CC)CCNC(=O)C1N=C(c2ccccc2)c2cc(Cl)ccc2NC1=O` (stereo not drawn) [4369 CB, 7-Chloro-3-(2-diethylamino-ethylaminocarbonyl)-5-phenyl-2-oxo-2,3-dihydro-1H-benzo[f]-1,4-diazepine], the ED50 is above 25 mg/kg in the series with mice [2]; above 50 mg/kg in the series with mice [3]; above 50 mg/kg in the series on mice [4]; above 20 mg/kg in the series on mice [5]; above 20 mg/kg in the series with mice [6] (po); above 10 mg/kg in the series with mouse [7].

For `Cc1ccc2c(c1)C(c1ccccc1)=NC(C(=O)O)C(=O)N2.[K+].[K+].[OH-].[OH-]` (stereo not drawn) [4339 CB, 7-Methyl-2,3-dihydro-2-oxo-5-phenyl-1H-benzo[f]-1,4-diazepine-3-carboxylic acid, monopotassium salt, monopotassium hydroxide], the ED50 with mice [2] was above 10 mg/kg; in the series on mice [3] it was above 10 mg/kg; with mice [4] it was above 10 mg/kg; in the series on mice [5], above 10 mg/kg; in the series with mouse [7], 10 mg/kg. For the same compound, in “Solubility”, the Solubility in water result is recorded as “completely soluble in water”.

With `CCOC(=O)C1N=C(c2ccccc2)c2cc(Cl)ccc2NC1=O` (stereo not drawn) [4279 CB, 7-Chloro-3-carbethoxy-5-phenyl-2-oxo-2,3-dihydro-1H-benzo[f]-1,4-diazepine], the ED50 was 8 mg/kg with mice [2]; 50 mg/kg in the series with mice [3]; 10 mg/kg in the series with mice [4]; 25 mg/kg with mice [5]; 25 mg/kg with mice [6] (po); 100 mg/kg with rat [9]. The ED50 was 100 mg/kg in the series on mouse [7] and above 100 mg/kg in the series on rat [8].

For `O=C(O)C1N=C(c2ccccc2)c2ccccc2NC1=O.[K+].[K+].[OH-].[OH-]` (stereo not drawn) [4337 CB, 2,3-Dihydro-2-oxo-5-phenyl-1H-benzo[f]-1,4-diazepine-3-carboxylic acid, monopotassium salt, monopotassium hydroxide], the ED50 in the series on mice [2] is 5 mg/kg; in the series on mice [3], above 10 mg/kg; with mice [4] it was above 10 mg/kg; with mice [5] it was above 10 mg/kg; with mice [6] (po) it was above 10 mg/kg. Besides, the “Reaction / pH of aqueous solution” value in series [1] is “strongly alkaline in reaction”. For the same compound, the Solubility in water entry in the series “Solubility” is reported as “completely soluble in water”.

In the series “Acute toxicity (M) LD 50” (PO), `O=C(O)C1N=C(c2ccccc2)c2cc([N+](=O)[O-])ccc2NC1=O` (stereo not drawn) [4336 CB, 3-[7-nitro-5-phenyl-2-oxo-2,3-dihydro-1H-benzo[f]-1,4-diazepine]-carboxylicacid, potassium salt] registered an LD50 of 800 mg/kg. The ED50 with mice [2] is 0.28 mg/kg; in the series with mice [3], 1.5 mg/kg; with mice [4], 0.31 mg/kg; in the series on mice [5], 3 mg/kg; in the series on mice [6] (po) it was 6 mg/kg; in the series with rat [9] it was 50 mg/kg. The ED50 was found to be 5 mg/kg in the series with mouse [7]; 25 mg/kg with mouse [10]; 25 mg/kg in the series with cat; 25 mg/kg with cats; 10 mg/kg with male rat. The “Effect in diminishing aggressiveness” value in the series with male rat (test for combativeness) is reported as “marked effect in diminishing aggressiveness”. Also, the “Reaction / pH of aqueous solution” value in series [1] is on record as “practically neutral solution”. For the same compound, the “Activity in different tests, especially as myorelaxants and anticonvulsants” value in the series with central nervous system (different tests of Table VI) was “extremely active in different tests”. In the series on central nervous system (in vivo), the “Effect on the faculties of displacement” value is given as “less effect on the faculties of displacement”. For the same compound, the Solubility in water entry in “Solubility” was “dissolves in water”.
